Measurements as given in the supplement of paper PMC9663587.

Key:
[1] = compound: CCc1cnn2c(NCc3ccc[n+]([O-])c3)cc(N3CCCC[C@H]3CCO)nc12; assay: increase in dead-cell fraction, 72 h; higher = more death;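 also: breast cancer cell lines in 384-well plates, stained with Hoechst plus LIVE/DEAD far red dye and imaged, cells above an LDR intensity threshold counted dead, Hoechst-negative corpses included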
YKL-5-124 = compound: C=CC(=O)Nc1ccc(C(=O)Nc2[nH]nc3c2CN(C(=O)N[C@H](CN(C)C)c2ccccc2)C3(C)C)cc1 [YKL-5-124]; assay: as above
Neratinib/HKI272 = compound: CCOc1cc2ncc(C#N)c(Nc3ccc(OCc4ccccn4)c(Cl)c3)c2cc1NC(=O)/C=C/CN(C)C [Neratinib/HKI272]; assay: as above
[2] = compound: CC(=O)c1c(C)c2cnc(Nc3ccc(N4CCNCC4)cn3)nc2n(C2CCCC2)c1=O; assay: as above
THZ531 [3] = compound: T1, CN(C)C/C=C/C(=O)Nc1ccc(C(=O)N2CCC[C@@H](Nc3ncc(Cl)c(-c4c[nH]c5ccccc45)n3)C2)cc1 [THZ531]; assay: as above
BSJ-03-123 = compound: CC(=O)c1c(C)c2cnc(Nc3ccc(N4CCN(CCOCCOCCOCCNC(=O)COc5cccc6c5C(=O)N(C5CCC(=O)NC5=O)C6=O)CC4)cn3)nc2n(C2CCCC2)c1=O [BSJ-03-123]; assay: as above
THZ1 [4] = compound: T2, CN(C)C/C=C/C(=O)Nc1ccc(C(=O)Nc2cccc(Nc3ncc(Cl)c(-c4c[nH]c5ccccc45)n3)c2)cc1 [THZ1]; assay: as above
LEE011/Ribociclib = compound: CN(C)C(=O)c1cc2cnc(Nc3ccc(N4CCNCC4)cn3)nc2n1C1CCCC1 [LEE011/Ribociclib]; assay: as above
[5] = compound: COc1ccc2c(c1)[C@]1(C[C@H]1c1ccc3c(/C=C/c4ccc(CN5C[C@@H](C)O[C@@H](C)C5)cc4)n[nH]c3c1)C(=O)N2
Rucaparib = compound: CNCc1ccc(-c2[nH]c3cc(F)cc4c3c2CCNC4=O)cc1 [Rucaparib]
Saracatinib/AZD0530 = compound: CN1CCN(CCOc2cc(OC3CCOCC3)c3c(Nc4c(Cl)ccc5c4OCO5)ncnc3c2)CC1 [Saracatinib/AZD0530]
[6] = compound: CCCCOc1c(C(=O)c2c(F)cc(C)cc2F)c[nH]c2nncc1-2
Cediranib/AZD2171 = compound: COc1cc2c(Oc3ccc4[nH]c(C)cc4c3F)ncnc2cc1OCCCN1CCCC1 [Cediranib/AZD2171]
[7] = compound: CO[C@@H](C)Cn1c(=O)n(C)c2cnc3ccc(-c4cncc(C(C)(C)O)c4)cc3c21
BVD523 = compound: CC(C)Nc1cc(-c2c[nH]c(C(=O)N[C@H](CO)c3cccc(Cl)c3)c2)c(Cl)cn1 [BVD523]
Alpelisib/BYL719 = compound: Cc1nc(NC(=O)N2CCC[C@H]2C(N)=O)sc1-c1ccnc(C(C)(C)C(F)(F)F)c1 [Alpelisib/BYL719]
AZD1775 = compound: C=CCn1c(=O)c2cnc(Nc3ccc(N4CCN(C)CC4)cc3)nc2n1-c1cccc(C(C)(C)O)n1 [AZD1775]
THZ531 [8] = compound: T1, THZ531
THZ1 [9] = compound: T2, THZ1
[10] = compound: CC(=O)Nc1cccc(-n2c(=O)n(C3CC3)c(=O)c3c(Nc4ccc(I)cc4F)n(C)c(=O)c(C)c32)c1
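For GR50, 72 h in this document: breast cancer and non-malignant breast epithelial cell lines, Deep Dye Drop or Dye Drop imaging, nine half-log doses, GR normalized to time-zero plates and DMSO-only controls.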

MGH312 was tested, and the “increase in dead-cell fraction” value ([1]; 0.0001 µM) was 0.0027, the “increase in dead-cell fraction” value ([1]; 0.0003162 µM) was 0.0051 and the “increase in dead-cell fraction” value ([1]; 0.001 µM) was -0.0065. For the same cell line, the “increase in dead-cell fraction” value ([1]; 0.003162 µM) was -0.0023, the “increase in dead-cell fraction” value ([1]; 0.01 µM) was 0.0052 and the “increase in dead-cell fraction” value ([1]; 0.03162 µM) was 0.481. For the same cell line, the “increase in dead-cell fraction” value ([1]; 0.1 µM) was 0.649, the “increase in dead-cell fraction” value ([1]; 0.3162 µM) was 0.713 and the “increase in dead-cell fraction” value ([1]; 1 µM) was 0.67. For the same cell line, the “increase in dead-cell fraction” value (YKL-5-124; 0.001 µM) was 0.0188, the “increase in dead-cell fraction” value (YKL-5-124; 0.003162 µM) was 0.0332 and the “increase in dead-cell fraction” value (YKL-5-124; 0.01 µM) was 0.0482. For the same cell line, the “increase in dead-cell fraction” value (YKL-5-124; 0.03162 µM) was 0.0591, the “increase in dead-cell fraction” value (YKL-5-124; 0.1 µM) was 0.0669 and the “increase in dead-cell fraction” value (YKL-5-124; 0.3162 µM) was 0.0808. The “increase in dead-cell fraction” value (YKL-5-124; 1 µM) was 0.0821, the “increase in dead-cell fraction” value (YKL-5-124; 3.162 µM) was 0.15 and the “increase in dead-cell fraction” value (YKL-5-124; 10 µM) was 0.61. The “increase in dead-cell fraction” value (Neratinib/HKI272; 0.0003162 µM) was -0.0056, the “increase in dead-cell fraction” value (Neratinib/HKI272; 0.001 µM) was -0.0054 and the “increase in dead-cell fraction” value (Neratinib/HKI272; 0.003162 µM) was -0.0078. For the same cell line, the “increase in dead-cell fraction” value (Neratinib/HKI272; 0.01 µM) was 0.0126, the “increase in dead-cell fraction” value (Neratinib/HKI272; 0.03162 µM) was 0.0263 and the “increase in dead-cell fraction” value (Neratinib/HKI272; 0.1 µM) was 0.0191. The “increase in dead-cell fraction” value (Neratinib/HKI272; 0.3162 µM) was 0.0224, the “increase in dead-cell fraction” value (Neratinib/HKI272; 1 µM) was 0.0395 and the “increase in dead-cell fraction” value (Neratinib/HKI272; 3.162 µM) was 0.0962. The “increase in dead-cell fraction” value ([2]; 0.0003162 µM) was -0.0083, the “increase in dead-cell fraction” value ([2]; 0.001 µM) was -0.0121 and the “increase in dead-cell fraction” value ([2]; 0.003162 µM) was 0.0011. For the same cell line, the “increase in dead-cell fraction” value ([2]; 0.01 µM) was -0.0042, the “increase in dead-cell fraction” value ([2]; 0.03162 µM) was 0.001 and the “increase in dead-cell fraction” value ([2]; 0.1 µM) was -0.0039. For the same cell line, the “increase in dead-cell fraction” value ([2]; 0.3162 µM) was 0.003, the “increase in dead-cell fraction” value ([2]; 1 µM) was 0.0034 and the “increase in dead-cell fraction” value ([2]; 3.162 µM) was 0.0037. The “increase in dead-cell fraction” value (THZ531 [3]; 0.0001 µM) was -0.0016, the “increase in dead-cell fraction” value (THZ531 [3]; 0.0003162 µM) was 0.006 and the “increase in dead-cell fraction” value (THZ531 [3]; 0.001 µM) was 0.0097. For the same cell line, the “increase in dead-cell fraction” value (THZ531 [3]; 0.003162 µM) was 0.002, the “increase in dead-cell fraction” value (THZ531 [3]; 0.01 µM) was -0.0045 and the “increase in dead-cell fraction” value (THZ531 [3]; 0.03162 µM) was 0.0455. For the same cell line, the “increase in dead-cell fraction” value (THZ531 [3]; 0.1 µM) was 0.662, the “increase in dead-cell fraction” value (THZ531 [3]; 0.3162 µM) was 0.72 and the “increase in dead-cell fraction” value (THZ531 [3]; 1 µM) was 0.639. The “increase in dead-cell fraction” value (BSJ-03-123; 0.001 µM) was -0.0024, the “increase in dead-cell fraction” value (BSJ-03-123; 0.003162 µM) was 0.0067 and the “increase in dead-cell fraction” value (BSJ-03-123; 0.01 µM) was 0.0098. The “increase in dead-cell fraction” value (BSJ-03-123; 0.03162 µM) was -0.0134, the “increase in dead-cell fraction” value (BSJ-03-123; 0.1 µM) was 0.0037 and the “increase in dead-cell fraction” value (BSJ-03-123; 0.3162 µM) was 0.0116. For the same cell line, the “increase in dead-cell fraction” value (BSJ-03-123; 1 µM) was 0.0094, the “increase in dead-cell fraction” value (BSJ-03-123; 3.162 µM) was 0.0031 and the “increase in dead-cell fraction” value (BSJ-03-123; 10 µM) was 0.55. For the same cell line, the “increase in dead-cell fraction” value (THZ1 [4]; 0.0001 µM) was -0.0154, the “increase in dead-cell fraction” value (THZ1 [4]; 0.0003162 µM) was 0 and the “increase in dead-cell fraction” value (THZ1 [4]; 0.001 µM) was -0.0061. The “increase in dead-cell fraction” value (THZ1 [4]; 0.003162 µM) was 0.0002, the “increase in dead-cell fraction” value (THZ1 [4]; 0.01 µM) was 0.0559 and the “increase in dead-cell fraction” value (THZ1 [4]; 0.03162 µM) was 0.541. For the same cell line, the “increase in dead-cell fraction” value (THZ1 [4]; 0.1 µM) was 0.684, the “increase in dead-cell fraction” value (THZ1 [4]; 0.3162 µM) was 0.628 and the “increase in dead-cell fraction” value (THZ1 [4]; 1 µM) was 0.699. The “increase in dead-cell fraction” value (LEE011/Ribociclib; 0.001 µM) was -0.0153, the “increase in dead-cell fraction” value (LEE011/Ribociclib; 0.003162 µM) was -0.0081 and the “increase in dead-cell fraction” value (LEE011/Ribociclib; 0.01 µM) was 0.0061. For the same cell line, the “increase in dead-cell fraction” value (LEE011/Ribociclib; 0.03162 µM) was -0.0004, the “increase in dead-cell fraction” value (LEE011/Ribociclib; 0.1 µM) was 0.001 and the “increase in dead-cell fraction” value (LEE011/Ribociclib; 0.3162 µM) was -0.0068. For the same cell line, the “increase in dead-cell fraction” value (LEE011/Ribociclib; 1 µM) was 0.006, the “increase in dead-cell fraction” value (LEE011/Ribociclib; 3.162 µM) was 0.004 and the “increase in dead-cell fraction” value (LEE011/Ribociclib; 10 µM) was -0.0032. For the same cell line, the “GR50, 72 h” value [5] was 0.00114 µM, the “GR50, 72 h” value (Rucaparib) was > 10 µM and the “GR50, 72 h” value (Saracatinib/AZD0530) was 0.133 µM. The “GR50, 72 h” value [6] was 0.00785 µM, the “GR50, 72 h” value (Cediranib/AZD2171) was 3.88 µM and the “GR50, 72 h” value [7] was < 0.001 µM. The “GR50, 72 h” value (BVD523) was > 10 µM, the “GR50, 72 h” value (Alpelisib/BYL719) was 6.6 µM and the “GR50, 72 h” value (AZD1775) was 1.27 µM. For the same cell line, the “GR50, 72 h” value (THZ531 [8]) was 0.0332 µM, the “GR50, 72 h” value (THZ1 [9]) was 0.00839 µM and the “GR50, 72 h” value [10] was > 1 µM.
